Reference: US9303019B2, “Amino-pyrroline derivatives, and use thereof in the prevention and/or treatment of metabolic syndrome” (UNIVERSITE DE STRASBOURG, priority 2012, dated 2016)
Structures can show the parent of a compound that is named as a salt.

Assays:
[1] = molecular target: I1 receptor (Mus musculus, UniProt Q80TM9); assay: Competitive binding to [125I]-PIC in membranes of 3T3 adipocytes; parameters: species or system murine; details: 3T3 cell membranes
Method: The adipocytes were washed twice with ice-cold PBS, harvested and homogenized in 25 mM Tris-HCl buffer, pH 7.5, 1 mM EDTA. The homogenates were centrifuged at 20,000×g for 15 min at 4° C. and the supernatant stored at −80° C. until use. The residues were re-suspended in 25 mM Tris-HCl buffer, pH 7.5, 1 mM EDTA and stored at −80° C. […]
The reaction was halted by rapid vacuum filtration through GF/B fibre glass filters treated with 0.3% PEI using filtering equipment of Brandel® type, followed by three rapid washings of the filters using 3 ml of ice-cold 50 mM Tris-HCl buffer, pH 7.4. The radioactivity retained on the dried filters was determined using a Minaxi gamma counter (Packard, Meriden, CT, USA). Non-specific binding was determined by [^125I]PIC binding in the presence of 10 μM PIC and represented about 43% of total radioactivity.

[2] = test system: 3T3-L1 adipocytes; assay: Secretion of adiponectin by differentiated 3T3-L1 adipocytes (ELISA); format: cell-based, murine
Method: 3T3-L1 murine preadipocytes were cultured to confluence at 37° C. in DMEM medium containing 4.5 g/litre of D-glucose, 10% FCS and antibiotics. At confluence, differentiation of the 3T3-L1 adipocytes was initiated through the addition over 48 h of a mixture containing 100 μM methyl-isobutylxanthine, 100 nm dexamethasone and 175 nM insulin. The cells were then passaged every 2-3 days in DMEM, 10% FCS and 175 nM insulin. More than 95% of cells had the phenotype of mature adipocytes 10 days after confluence was reached.
To determine the secretion of adiponectin by mature adipocytes, differentiated 3T3-L1 adipocytes (10 days after confluence) were placed in culture in 12-well plates and washed three times with DMEM, then cultured for 6 h in DMEM alone, in the absence or presence of 3 μM of compound 1. In some wells the antagonist selective for the imidazoline receptors I1, efaroxan, was added (100 μM) 30 min before exposure to compound 1.
The culture medium was then recovered, centrifuged for 3 min at 10 000 g to remove cell contaminants, and the supernatant was stored at −80° C. until use. After two washings in cold PBS, the adipocytes were collected in PBS, homogenized and stored at −80° C. An aliquot of adipocyte homogenate was stored for protein determination. The adiponectin was measured using an ELISA kit following the manufacturer's recommendations. The adiponectin concentration was normalized with the cell protein content.

[3] = test system: α2-adrenergic receptors; assay: Binding assay of the α2-adrenergic receptors on CHO cell membranes with [3H]RX821002; parameters: species or system human; details: CHO cells
Method: These membranes (30 μg proteins/ml for CHO-hα2A and CHO-hα2B, 100 μg protein/ml for CHO-hα2C) were incubated for 60 min at ambient temperature in binding buffer (33 mM Tris-HCl, 1 mM EDTA, pH 7.5) in a final volume of 500 μL containing 0.8 or 1 or 2 nM [^3H]RX821002 respectively for the adrenergic receptors hα2A, hα2B and hα2C.
Incubation was halted by rapid vacuum filtration through GF/C glass fibre filters followed by three successive washings in ice-cold binding buffer.
Non-specific binding was determined using 10 μM phentolamine.
(§1) The competitive assays were analyzed by non-linear regression using the GraphPad programme.
(§2) Ki values were determined using the method described by Cheng and Prussof (Cheng, Y. C.; Prusoff, W. H. Relationship between the Inhibition Constant (Ki) and the Concentration of Inhibitor which causes 50 percent Inhibition (I50) of an Enzymatic Reaction. Biochem. Pharmacol. 1973, 22, 3099-3108).

[4] = molecular target: I1 receptor (Homo sapiens, UniProt Q9Y2I1); assay: Specific binding assay of the I1 receptor on human platelets with [125I]LNP 911
Chain of I1 receptor (Homo sapiens, UniProt Q9Y2I1) (Q9Y2I1 2-1504 limits assumed): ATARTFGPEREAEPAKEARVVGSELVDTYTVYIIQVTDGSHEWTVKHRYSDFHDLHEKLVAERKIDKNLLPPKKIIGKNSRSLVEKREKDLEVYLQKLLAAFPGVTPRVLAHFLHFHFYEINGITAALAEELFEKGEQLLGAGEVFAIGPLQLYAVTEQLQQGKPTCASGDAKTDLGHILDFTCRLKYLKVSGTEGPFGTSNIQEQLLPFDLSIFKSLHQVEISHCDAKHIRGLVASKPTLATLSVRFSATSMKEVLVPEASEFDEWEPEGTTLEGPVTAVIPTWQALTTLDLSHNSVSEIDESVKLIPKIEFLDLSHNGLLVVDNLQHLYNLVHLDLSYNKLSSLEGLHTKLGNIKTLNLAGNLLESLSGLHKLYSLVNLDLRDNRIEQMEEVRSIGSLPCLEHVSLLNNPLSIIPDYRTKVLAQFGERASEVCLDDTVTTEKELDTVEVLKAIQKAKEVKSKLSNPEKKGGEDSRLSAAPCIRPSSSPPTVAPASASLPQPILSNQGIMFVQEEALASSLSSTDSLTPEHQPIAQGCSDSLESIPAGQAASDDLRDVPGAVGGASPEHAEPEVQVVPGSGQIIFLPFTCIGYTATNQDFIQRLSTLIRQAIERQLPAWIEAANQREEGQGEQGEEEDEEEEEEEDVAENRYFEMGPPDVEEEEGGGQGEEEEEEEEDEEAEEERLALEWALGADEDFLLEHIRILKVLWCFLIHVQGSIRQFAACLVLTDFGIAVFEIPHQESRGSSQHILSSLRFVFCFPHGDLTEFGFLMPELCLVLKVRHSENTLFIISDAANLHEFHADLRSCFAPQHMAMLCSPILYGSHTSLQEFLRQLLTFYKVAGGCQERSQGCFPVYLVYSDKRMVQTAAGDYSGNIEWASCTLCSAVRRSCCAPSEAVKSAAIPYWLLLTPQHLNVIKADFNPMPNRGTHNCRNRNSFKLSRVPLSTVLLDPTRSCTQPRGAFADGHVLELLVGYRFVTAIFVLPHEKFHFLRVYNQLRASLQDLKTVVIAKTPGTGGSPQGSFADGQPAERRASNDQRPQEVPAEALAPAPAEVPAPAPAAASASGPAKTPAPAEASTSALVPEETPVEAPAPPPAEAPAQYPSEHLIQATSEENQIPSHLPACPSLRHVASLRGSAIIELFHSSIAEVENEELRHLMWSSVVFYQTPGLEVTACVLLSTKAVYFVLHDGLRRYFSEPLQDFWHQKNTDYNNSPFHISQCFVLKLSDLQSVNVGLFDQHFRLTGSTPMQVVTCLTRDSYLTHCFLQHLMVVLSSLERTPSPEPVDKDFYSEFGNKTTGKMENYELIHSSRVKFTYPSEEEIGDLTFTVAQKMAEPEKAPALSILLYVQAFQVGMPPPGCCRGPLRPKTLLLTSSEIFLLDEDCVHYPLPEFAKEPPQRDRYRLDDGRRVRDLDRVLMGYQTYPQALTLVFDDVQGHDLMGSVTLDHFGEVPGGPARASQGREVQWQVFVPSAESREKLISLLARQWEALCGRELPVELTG
Method: Binding assays were performed at 37° C. using [^125I]LNP 911 as radioligand following the general procedure described but adapted to washed whole platelets (Greney, H.; Urosevic, D.; Schann, S.; Dupuy, L.; Bruban, V.; Ehrhardt, J,-D.; Bousquet, P.; Dontenwill, M. [^125I]2-(2-Chloro-4-iodo-phenylamino)-5-methyl-pyrroline (LNP911), a High-Affinity Radioligand Selective for I1 Imidazoline Receptors. Mol. Pharmacol. 2002, 62, 181-191).
Incubation was initiated through the addition of 900 to 950 μl of platelet suspension at a concentration of 500000/μl in a final volume of 1 ml Tyrode albumin and was performed at 37° C. for 5 min (equilibrium conditions). The competitive assays were conducted using a single concentration of radioligand ([…], 200 000 cpm), in the presence of increasing concentrations of suitable non-labelled ligand. Non-specific binding was determined by the binding of [^125I]LNP 911 in the presence of 100 nM of non-labelled LNP 911 and represented about 10% of total radioactivity when […] of [^125I]LNP 911 were used.
The reaction was halted by rapid vacuum filtration through GF/C fibre glass filters followed by five rapid washings of the filters with 3 ml of ice-cold Tyrode ([…], pH 7.35). Radioactivity was measured using a gamma counter (Wallac 1410).
as §1, §2

Chain of I1 receptor (Mus musculus, UniProt Q80TM9) (Q80TM9 whole entry, looked up): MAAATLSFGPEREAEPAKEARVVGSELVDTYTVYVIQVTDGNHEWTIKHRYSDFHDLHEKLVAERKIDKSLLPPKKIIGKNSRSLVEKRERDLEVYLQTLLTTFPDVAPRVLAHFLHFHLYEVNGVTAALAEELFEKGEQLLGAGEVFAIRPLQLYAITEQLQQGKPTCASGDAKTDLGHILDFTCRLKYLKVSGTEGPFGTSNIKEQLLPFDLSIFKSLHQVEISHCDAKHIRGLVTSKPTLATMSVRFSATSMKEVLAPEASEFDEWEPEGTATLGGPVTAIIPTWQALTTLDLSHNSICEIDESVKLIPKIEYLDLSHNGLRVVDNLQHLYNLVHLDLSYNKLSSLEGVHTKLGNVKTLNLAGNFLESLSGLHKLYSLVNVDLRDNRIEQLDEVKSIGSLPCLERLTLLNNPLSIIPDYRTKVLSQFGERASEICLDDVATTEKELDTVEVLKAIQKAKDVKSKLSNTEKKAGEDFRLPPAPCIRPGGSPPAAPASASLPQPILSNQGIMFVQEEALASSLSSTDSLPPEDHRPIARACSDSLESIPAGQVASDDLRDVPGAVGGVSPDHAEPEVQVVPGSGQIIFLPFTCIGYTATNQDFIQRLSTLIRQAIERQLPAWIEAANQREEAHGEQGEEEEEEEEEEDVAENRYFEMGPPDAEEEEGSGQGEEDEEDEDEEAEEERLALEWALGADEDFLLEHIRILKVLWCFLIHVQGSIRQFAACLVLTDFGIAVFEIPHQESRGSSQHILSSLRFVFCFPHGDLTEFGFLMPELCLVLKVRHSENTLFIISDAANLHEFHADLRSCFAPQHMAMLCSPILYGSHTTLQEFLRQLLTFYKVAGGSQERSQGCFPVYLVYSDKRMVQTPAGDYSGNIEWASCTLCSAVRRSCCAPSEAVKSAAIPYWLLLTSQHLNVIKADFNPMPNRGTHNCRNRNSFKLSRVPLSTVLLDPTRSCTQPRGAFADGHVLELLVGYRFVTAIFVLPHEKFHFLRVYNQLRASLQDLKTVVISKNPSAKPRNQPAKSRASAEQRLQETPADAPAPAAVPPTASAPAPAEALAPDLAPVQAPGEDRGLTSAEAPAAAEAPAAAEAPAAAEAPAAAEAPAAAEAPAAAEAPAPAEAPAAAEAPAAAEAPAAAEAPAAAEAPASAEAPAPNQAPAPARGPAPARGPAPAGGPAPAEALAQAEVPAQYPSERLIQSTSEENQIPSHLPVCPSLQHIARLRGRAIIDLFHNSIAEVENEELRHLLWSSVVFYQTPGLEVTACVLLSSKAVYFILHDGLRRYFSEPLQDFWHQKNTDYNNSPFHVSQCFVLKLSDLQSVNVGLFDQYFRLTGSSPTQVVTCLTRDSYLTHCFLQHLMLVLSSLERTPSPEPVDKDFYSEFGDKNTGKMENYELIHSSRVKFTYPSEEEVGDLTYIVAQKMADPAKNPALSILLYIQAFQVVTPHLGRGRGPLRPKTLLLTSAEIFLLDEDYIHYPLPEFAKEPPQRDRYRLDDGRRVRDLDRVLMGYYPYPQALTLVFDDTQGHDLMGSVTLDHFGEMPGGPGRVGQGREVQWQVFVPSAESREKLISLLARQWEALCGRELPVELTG

Row | Compound | Ki [3] | Ki [4] | further results
1 | Clc1cccc(Cl)c1N=C1NCCN1 [clonidine] |  |  | share of total sites with high affinity [1]: 57%
2 | CCC1(C2=NCCN2)Cc2ccccc2O1 (stereo not drawn) [efaroxan] |  |  | secretion of adiponectin, efaroxan alone ([2]; 100 μmol/l, control 212.6±19.1): 175.2±15.5 ng/ml/mg of proteins; secretion of adiponectin, pre-incubation with efaroxan before compound 1 ([2]; efaroxan 100 μmol/l 30 min before compound 1 3 μmol/l, vs. 378±38 with compound 1 alone): 236±19.2 ng/ml/mg of proteins
3 | CC1CN=C(Nc2ccc(Cl)c3c2CCC3)C1 (stereo not drawn) [Compound 8, (7-Chloro-indan-4-yl)-(4-methyl-4,5-dihydro-3H-pyrrol-2-yl)-amine hydrochloride] | > 10000 nM | 0.22 nM | 
4 | Cc1ccc(NC2=NCC(C)C2)c2c1CCC2 (stereo not drawn) [Compound 9, (7-Methyl-indan-4-yl)-(4-methyl-4,5-dihydro-3H-pyrrol-2-yl)-amine hydrochloride] | > 10000 nM |  | 
5 | CC1CCC(Nc2ccc(Cl)c3c2CCC3)=N1 (stereo not drawn) [Compound 20, (7-Chloro-indan-4-yl)-(5-methyl-4,5-dihydro-3H-pyrrol-2-yl)-amine hydrochloride] | > 10000 nM | 2.8 nM | 
6 | CC1CCC(Nc2ccccc2Cl)=N1.Cl (stereo not drawn) [Compound 13, (2-Chlorophenyl)-(5-methyl-4,5-dihydro-3H-pyrrol-2-yl)-amine hydrochloride] | > 10000 nM |  | melting point: 173 to 174 °C
7 | CC1CCC(Nc2cccc3c2CCC3)=N1 (stereo not drawn) [Compound 5, Indan-4-yl-(5-methyl-4,5-dihydro-3H-pyrrol-2-yl)-amine hydrochloride] | > 10000 nM | 19 nM | 
